# From patent publication US20230172921A1, “LERIGLITAZONE FOR TREATING LUNG INFLAMMATION AND INTERSTITIAL LUNG DISEASE” (Minoryx Therapeutics S.L., priority 2020, published 2023)
# Where “and” joins values, the source holds several entries; their conditions need not be identical. Identical values can stand only once. Counter-ions that a name gives are not always drawn.
# How the values were obtained:
# [1] = Unbound fraction in human plasma; assay type: in vitro ADME
# [2] = tested on: Macrophages exposed to SARS-CoV-2; assay: Cytokine production in macrophages in the presence of SARS-CoV-2 (Luminex); assay type: cell-based; conditions: macrophages exposed to SARS-CoV-2, supernatant 24 h post-infection
# [3] = Lung/blood distribution ratio in rat; assay type: in vivo; conditions: lung and blood
# [4] = tested on: LPS induced acute lung injury (ALI) model; assay: LPS induced acute lung injury model in mouse; assay type: in vivo; conditions: for CD45+ % Decrease vs vehicle / CD45+ Mean / IL-6 % Decrease vs vehicle / IL-6 Mean / IL-12p40 % Decrease vs vehicle / IL-12p40 Mean / IP-10 % Decrease vs vehicle / IP-10 Mean / MIG % Decrease vs vehicle / MIG Mean / Neutrophils % Decrease vs vehicle / Neutrophils Mean / RANTES % Decrease vs vehicle / RANTES Mean / T cells % Decrease vs vehicle / T cells Mean / TNF % Decrease vs vehicle / TNF Mean / Total Protein in BALF % Decrease vs vehicle / Total Protein in BALF Mean: BALF Day 3; for decrease in neutrophil recruitment in the alveoli / decrease in neutrophil recruitment in the interstitium / reduction in mononuclear cell infiltration in the perivascular/peribronchiolar space / reduction of septal thickening in the alveoli: lung H&E histopathology score; for decrease in neutrophil recruitment in the alveoli / decrease in neutrophil recruitment in the interstitium / reduction in mononuclear cell infiltration in the perivascular/peribronchiolar space: FIG. 21; for reduction of septal thickening in the alveoli: FIG. 22
# Description: Table 2 summarizes the groups tested in the LPS induced acute lung injury (ALI) model study in mice. [table] Briefly, C57Bl/6 7-8 week old mice were exposed to lipopolysaccharide (LPS) oral aspiration (5 mg/Kg). The animals were treated orally with either vehicle, M3 (50 mg/Kg, or MIN-102 at different doses 25 and 50 mg/Kg) bid from Day −1 to Day 2, 6-8 h apart and QD on Day 3 1 h before euthanasia. On Day 3 protein content, cytokine assessment and leukocyte count by FACS analysis were performed in the bronchoalveolar lavage fluid (BALF). The results are shown in FIGS. 11-20, and Tables 3 and 4. The lungs were collected, embedded and processed for H&E histology.
# [5] = maximal over doses 25 and 50 mg/kg, BALF
structure (smiles),measurement,setting,value
"CC(O)c1ccc(CCOc2ccc(CC3SC(=O)NC3=O)cc2)nc1 (racemic) [MIN-102, 5-[[4-[2-[5-(1-hydroxyethyl)pyridin-2-yl]ethoxy]phenyl]methyl]-1,3-thiazolidine-2,4-dione hydrochloride]",Unbound % in Plasma (human),[1],3.5%
same,effect on IL2 secretion,[2],No effect
same,effect on IL7 secretion,[2],No effect
same,reduction of MIP1-α secretion,[2],90%
same,Kp,[3],0.83
same,CD45+ % Decrease vs vehicle,[4]; 25 mg/kg PO BID,52.36%
same,CD45+ Mean,[4]; 25 mg/kg PO BID,462941 cells/ml BALF
same,IL-6 % Decrease vs vehicle,[4]; 25 mg/kg PO BID,76.17%
same,IL-6 Mean,[4]; 25 mg/kg PO BID,116.2 pg/mL
same,IL-12p40 % Decrease vs vehicle,[4]; 25 mg/kg PO BID,55.14%
same,IL-12p40 Mean,[4]; 25 mg/kg PO BID,15.48 pg/mL
same,IP-10 % Decrease vs vehicle,[4]; 25 mg/kg PO BID,47.55%
same,IP-10 Mean,[4]; 25 mg/kg PO BID,627.6 pg/mL
same,MIG % Decrease vs vehicle,[4]; 25 mg/kg PO BID,50.52%
same,MIG Mean,[4]; 25 mg/kg PO BID,1369 pg/mL
same,Neutrophils % Decrease vs vehicle,[4]; 25 mg/kg PO BID,56.41%
same,Neutrophils Mean,[4]; 25 mg/kg PO BID,280504 cells/ml BALF
same,RANTES % Decrease vs vehicle,[4]; 25 mg/kg PO BID,61.57%
same,RANTES Mean,[4]; 25 mg/kg PO BID,21.68 pg/mL
same,T cells % Decrease vs vehicle,[4]; 25 mg/kg PO BID,43.43%
same,T cells Mean,[4]; 25 mg/kg PO BID,20898 cells/ml BALF
same,TNF % Decrease vs vehicle,[4]; 25 mg/kg PO BID,59.19%
same,TNF Mean,[4]; 25 mg/kg PO BID,12.85 pg/mL
same,Total Protein in BALF % Decrease vs vehicle,[4]; 25 mg/kg PO BID,46.00%
same,Total Protein in BALF Mean,[4]; 25 mg/kg PO BID,245.3 µg/mL
same,CD45+ % Decrease vs vehicle,[4]; 50 mg/kg PO BID,49.83%
same,CD45+ Mean,[4]; 50 mg/kg PO BID,487506 cells/ml BALF
same,IL-6 % Decrease vs vehicle,[4]; 50 mg/kg PO BID,87.13%
same,IL-6 Mean,[4]; 50 mg/kg PO BID,62.78 pg/mL
same,IL-12p40 % Decrease vs vehicle,[4]; 50 mg/kg PO BID,71.41%
same,IL-12p40 Mean,[4]; 50 mg/kg PO BID,9.868 pg/mL
same,IP-10 % Decrease vs vehicle,[4]; 50 mg/kg PO BID,55.42%
same,IP-10 Mean,[4]; 50 mg/kg PO BID,731.5 pg/mL
same,MIG % Decrease vs vehicle,[4]; 50 mg/kg PO BID,73.18%
same,MIG Mean,[4]; 50 mg/kg PO BID,741.7 pg/mL
same,Neutrophils % Decrease vs vehicle,[4]; 50 mg/kg PO BID,57.85%
same,Neutrophils Mean,[4]; 50 mg/kg PO BID,271223 cells/ml BALF
same,RANTES % Decrease vs vehicle,[4]; 50 mg/kg PO BID,79.24%
same,RANTES Mean,[4]; 50 mg/kg PO BID,11.71 pg/mL
same,T cells % Decrease vs vehicle,[4]; 50 mg/kg PO BID,42.49%
same,T cells Mean,[4]; 50 mg/kg PO BID,21245 cells/ml BALF
same,TNF % Decrease vs vehicle,[4]; 50 mg/kg PO BID,68.26%
same,TNF Mean,[4]; 50 mg/kg PO BID,10 pg/mL
same,Total Protein in BALF % Decrease vs vehicle,[4]; 50 mg/kg PO BID,49.50%
same,Total Protein in BALF Mean,[4]; 50 mg/kg PO BID,229.4 µg/mL
same,decrease of total number of leukocytes (CD45 positive cells) vs vehicle group,"[4]; in all doses (25 and 50 mg/kg), BALF",50%
same,decrease in neutrophil recruitment in the alveoli,[4],53%
same,decrease in neutrophil recruitment in the interstitium,[4],48%
same,reduction in mononuclear cell infiltration in the perivascular/peribronchiolar space,[4],31%
same,reduction of septal thickening in the alveoli,[4],43%
same,"T cells, maximal reduction vs vehicle group",[4]; [5],around 47%
same,"neutrophils, maximal reduction vs vehicle group",[4]; [5],around 58%
"CCc1ccc(CCOc2ccc(CC3SC(=O)NC3=O)cc2)nc1 (stereo not shown) [Pioglitazone, reference compound]",Unbound % in Plasma (human),[1],0.2%
same,Kp,[3],0.3
"CC(=O)c1ccc(CCOc2ccc(CC3SC(=O)NC3=O)cc2)nc1 (stereo not shown) [Compound M3, 5-[[4-[2-[5-Acetylpyridin-2-yl]ethoxy]phenyl]methyl]-1,3-thiazolidine-2,4-dione]",CD45+ % Decrease vs vehicle,[4]; 50 mg/kg PO BID,67% and 67.35%
same,CD45+ Mean,[4]; 50 mg/kg PO BID,317269 cells/ml BALF
same,IL-6 % Decrease vs vehicle,[4]; 50 mg/kg PO BID,96.86%
same,IL-6 Mean,[4]; 50 mg/kg PO BID,15.29 pg/mL
same,IL-12p40 % Decrease vs vehicle,[4]; 50 mg/kg PO BID,86.71%
same,IL-12p40 Mean,[4]; 50 mg/kg PO BID,4.586 pg/mL
same,IP-10 % Decrease vs vehicle,[4]; 50 mg/kg PO BID,79.17%
same,IP-10 Mean,[4]; 50 mg/kg PO BID,1045 pg/mL
same,MIG % Decrease vs vehicle,[4]; 50 mg/kg PO BID,90.75%
same,MIG Mean,[4]; 50 mg/kg PO BID,256.2 pg/mL
same,Neutrophils % Decrease vs vehicle,[4]; 50 mg/kg PO BID,72% and 72.06%
same,Neutrophils Mean,[4]; 50 mg/kg PO BID,179793 cells/ml BALF
same,RANTES % Decrease vs vehicle,[4]; 50 mg/kg PO BID,93.19%
same,RANTES Mean,[4]; 50 mg/kg PO BID,3.838 pg/mL
same,T cells % Decrease vs vehicle,[4]; 50 mg/kg PO BID,74% and 74.14%
same,T cells Mean,[4]; 50 mg/kg PO BID,9554 cells/ml BALF
same,TNF % Decrease vs vehicle,[4]; 50 mg/kg PO BID,68.26%
same,TNF Mean,[4]; 50 mg/kg PO BID,10 pg/mL
same,Total Protein in BALF % Decrease vs vehicle,[4]; 50 mg/kg PO BID,63% and 63.24%
same,Total Protein in BALF Mean,[4]; 50 mg/kg PO BID,167 µg/mL
same,reduction of B cells,"[4]; 50 mg/kg, BALF",52%
same,decrease in neutrophil recruitment in the alveoli,[4],64%
same,decrease in neutrophil recruitment in the interstitium,[4],62%
same,reduction in mononuclear cell infiltration in the perivascular/peribronchiolar space,[4],40%
same,reduction of septal thickening in the alveoli,[4],79%
